Molecules are shown by their SMILES. Counter-ions that a name gives are not always drawn. Where only a bound is given, the exact number is not on record here.

Here are results for 20 compounds from patent US20240382483A1, “HETEROCYCLIC EGFR INHIBITORS FOR USE IN THE TREATMENT OF CANCER” (Blueprint Medicines Corporation, priority 2021, published 2024).

The target of assay [1] is T1, intracellular phosphorylation of EGFR in NCI-H1975 cell line that harbors the EGFR L858R T790M mutations (Homo sapiens, UniProt P00533, L858R/T790M).
T1 construct: NCI-H1975 cell line that harbors the EGFR L858R T790M mutations (ATCC, CRL-5908); host or cells: NCI-H1975
T1 sequence (P00533 25-1210 T790M/L858R): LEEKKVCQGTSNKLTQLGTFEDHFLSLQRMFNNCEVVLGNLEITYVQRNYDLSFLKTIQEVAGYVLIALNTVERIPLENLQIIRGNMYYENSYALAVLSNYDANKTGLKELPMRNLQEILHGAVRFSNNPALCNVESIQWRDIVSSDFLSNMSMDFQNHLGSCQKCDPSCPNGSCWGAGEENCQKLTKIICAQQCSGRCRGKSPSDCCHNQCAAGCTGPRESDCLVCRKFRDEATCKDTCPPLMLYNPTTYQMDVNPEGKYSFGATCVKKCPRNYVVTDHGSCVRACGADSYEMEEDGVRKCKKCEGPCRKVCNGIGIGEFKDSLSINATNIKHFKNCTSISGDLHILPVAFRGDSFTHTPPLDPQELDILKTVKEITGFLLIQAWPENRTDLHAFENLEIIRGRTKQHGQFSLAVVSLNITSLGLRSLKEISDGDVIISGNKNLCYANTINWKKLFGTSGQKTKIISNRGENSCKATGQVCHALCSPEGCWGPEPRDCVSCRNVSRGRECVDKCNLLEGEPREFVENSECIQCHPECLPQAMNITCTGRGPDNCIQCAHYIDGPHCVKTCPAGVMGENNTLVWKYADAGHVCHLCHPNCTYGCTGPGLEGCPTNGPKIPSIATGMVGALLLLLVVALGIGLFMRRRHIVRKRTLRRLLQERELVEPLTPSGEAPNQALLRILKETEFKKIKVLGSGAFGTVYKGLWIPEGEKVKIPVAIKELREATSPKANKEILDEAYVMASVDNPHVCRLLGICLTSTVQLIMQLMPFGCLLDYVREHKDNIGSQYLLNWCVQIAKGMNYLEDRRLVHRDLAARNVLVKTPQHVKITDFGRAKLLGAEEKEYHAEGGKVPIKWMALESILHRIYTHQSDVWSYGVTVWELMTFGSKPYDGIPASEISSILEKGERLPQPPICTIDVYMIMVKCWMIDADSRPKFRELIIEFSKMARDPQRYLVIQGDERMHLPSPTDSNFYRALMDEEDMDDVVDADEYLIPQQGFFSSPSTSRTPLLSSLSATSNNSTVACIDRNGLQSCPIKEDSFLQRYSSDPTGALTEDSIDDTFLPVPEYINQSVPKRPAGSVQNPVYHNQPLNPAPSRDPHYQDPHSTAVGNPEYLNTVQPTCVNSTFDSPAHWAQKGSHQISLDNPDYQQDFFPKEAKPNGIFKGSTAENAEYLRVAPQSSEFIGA
The experiment in a line: NCI-H1975 pEGFR AlphaLISA assay. Conditions: NCI-H1975 cells (EGFR L858R T790M), p-EGFR (Tyr1068), 4-5 hours incubation; read-out: Ext pEGFR H1975 GMean IC50 (nM) Protocol: @Pharmaron AlphaLISA (Num). Format: cell-based. The procedure:
On the next day, the test compounds and DMSO control were added into H1975 cell plate followed by incubation at 37C/5% CO2 for 4-5 hours. […] Then 5 μL of a donor bead mix was added to each well followed by overnight incubation at room temperature in dark. On the next day, the plate was read at a compatible plate reader to obtain pEGFR signal. Percent of pEGFR inhibition was plotted against log concentration of compounds to generate IC50 values.

The target of assay [2] is T2, EGFR (L858R T790M C797S) (Homo sapiens, UniProt P00533, C797S/L858R/T790M).
T2 construct: purchased SignalChem E10-122VG
T2 sequence (P00533 25-1210 T790M/C797S/L858R): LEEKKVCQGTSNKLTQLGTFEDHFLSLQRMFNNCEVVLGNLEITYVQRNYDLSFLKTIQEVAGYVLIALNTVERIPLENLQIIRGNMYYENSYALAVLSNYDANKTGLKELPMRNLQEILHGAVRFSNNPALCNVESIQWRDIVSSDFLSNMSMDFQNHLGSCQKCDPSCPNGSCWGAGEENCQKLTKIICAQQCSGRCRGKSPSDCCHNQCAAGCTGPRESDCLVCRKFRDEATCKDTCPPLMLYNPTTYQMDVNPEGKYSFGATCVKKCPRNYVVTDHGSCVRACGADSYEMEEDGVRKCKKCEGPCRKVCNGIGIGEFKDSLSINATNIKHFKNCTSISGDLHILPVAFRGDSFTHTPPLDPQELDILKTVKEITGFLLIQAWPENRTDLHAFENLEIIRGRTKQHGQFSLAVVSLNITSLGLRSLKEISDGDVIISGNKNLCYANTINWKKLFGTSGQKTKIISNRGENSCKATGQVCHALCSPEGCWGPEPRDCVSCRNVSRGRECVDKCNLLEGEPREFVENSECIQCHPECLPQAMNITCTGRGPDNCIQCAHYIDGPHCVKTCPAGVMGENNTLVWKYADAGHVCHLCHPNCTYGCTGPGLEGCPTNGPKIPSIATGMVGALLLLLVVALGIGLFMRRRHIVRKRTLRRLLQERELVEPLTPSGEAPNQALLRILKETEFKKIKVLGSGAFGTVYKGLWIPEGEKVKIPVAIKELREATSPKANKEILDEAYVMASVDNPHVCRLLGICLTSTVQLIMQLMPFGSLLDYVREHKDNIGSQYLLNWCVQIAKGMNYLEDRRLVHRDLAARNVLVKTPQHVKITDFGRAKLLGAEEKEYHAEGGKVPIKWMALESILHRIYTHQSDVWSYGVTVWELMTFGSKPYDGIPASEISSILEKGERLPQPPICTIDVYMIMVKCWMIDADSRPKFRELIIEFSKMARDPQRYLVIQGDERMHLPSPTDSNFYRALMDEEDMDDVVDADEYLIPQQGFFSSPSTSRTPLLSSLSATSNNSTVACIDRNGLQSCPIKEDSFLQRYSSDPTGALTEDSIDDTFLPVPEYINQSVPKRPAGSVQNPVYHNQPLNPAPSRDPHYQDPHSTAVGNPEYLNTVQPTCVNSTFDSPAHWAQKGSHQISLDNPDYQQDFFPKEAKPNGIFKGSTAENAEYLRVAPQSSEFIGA
The experiment in a line: Biochemical EGFR inhibition assay (Caliper mobility shift), EGFR LRTMCS. The settings on record: LRTMCS (PH) IC50 (nM) @ 1 mM ATP (Num), EGFR LRTMCS mutant. The gist of the method:
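Apparent IC50s were derived by plotting percent activity against the log of compound concentration. Activity was measured as phosphopeptide electrophoretically separated from substrate, after reactions at room temperature reached 10% to 20% phosphorylation and were halted with 35 mM EDTA.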

Take `CC(C)c1cnc(N2CC[C@]3(C2)CC3(F)F)c2cnc(Nc3ccnc(N4CC[C@@H](O)[C@@](C)(F)C4)n3)cc12` (single isomer, unassigned) [Example 213, (3S,4R)-1-(4-((8-((R)-1,1-difluoro-5-azaspiro[2.4]heptan-5-yl)-5-isopropyl-2,7-naphthyridin-3-yl)amino)pyrimidin-2-yl)-3-fluoro-3-methylpiperidin-4-ol or (3S,4R)-1-(4-((8-((S)-1,1-difluoro-5-azaspiro[2.4]heptan-5-yl)-5-isopropyl-2,7-naphthyridin-3-yl)amino)pyrimidin-2-yl)-3-fluoro-3-methylpiperidin-4-ol]: the half-maximal inhibitory concentration (IC50) in assay [1] is 10 to 20 nM; in assay [2], less than 15 nM.
In the case of `CC(C)c1cnc(N2CC[C@]3(C2)CC3(F)F)c2cnc(Nc3ccnc(N4CC[C@@H](O)[C@@](C)(F)C4)n3)cc12` (single isomer, unassigned) [Example 214, (3S,4R)-1-(4-((8-((R)-1,1-difluoro-5-azaspiro[2.4]heptan-5-yl)-5-isopropyl-2,7-naphthyridin-3-yl)amino)pyrimidin-2-yl)-3-fluoro-3-methylpiperidin-4-ol or (3S,4R)-1-(4-((8-((S)-1,1-difluoro-5-azaspiro[2.4]heptan-5-yl)-5-isopropyl-2,7-naphthyridin-3-yl)amino)pyrimidin-2-yl)-3-fluoro-3-methylpiperidin-4-ol], the values for the half-inhibitory concentration (IC50) in assay [1] and in assay [2] were 30 to 50 nM and 30 to 100 nM, respectively.
For the compound `COC[C@@H](C)c1cnc(N2CC[C@H]2C)c2cnc(Nc3ccnc(N4CC[C@@H](O)[C@@](C)(F)C4)n3)cc12` (single isomer, unassigned) [Example 215, (3S,4R)-3-fluoro-1-(4-((5-((S)-1-methoxypropan-2-yl)-8-((R)-2-methylazetidin-1-yl)-2,7-naphthyridin-3-yl)amino)pyrimidin-2-yl)-3-methylpiperidin-4-ol or (3S,4R)-3-fluoro-1-(4-((5-((R)-1-methoxypropan-2-yl)-8-((R)-2-methylazetidin-1-yl)-2,7-naphthyridin-3-yl)amino)pyrimidin-2-yl)-3-methylpiperidin-4-ol], the IC50 is 30 to 50 nM in assay [1] and less than 15 nM in assay [2].
Turning to `COC[C@@H](C)c1cnc(N2CC[C@H]2C)c2cnc(Nc3ccnc(N4CC[C@@H](O)[C@@](C)(F)C4)n3)cc12` (single isomer, unassigned) [Example 216, (3S,4R)-3-fluoro-1-(4-((5-((S)-1-methoxypropan-2-yl)-8-((R)-2-methylazetidin-1-yl)-2,7-naphthyridin-3-yl)amino)pyrimidin-2-yl)-3-methylpiperidin-4-ol or (3S,4R)-3-fluoro-1-(4-((5-((R)-1-methoxypropan-2-yl)-8-((R)-2-methylazetidin-1-yl)-2,7-naphthyridin-3-yl)amino)pyrimidin-2-yl)-3-methylpiperidin-4-ol], the values for the IC50 in assay [1] and in assay [2] were 20 to 30 nM and 15 to 20 nM, respectively.
In the case of `CO[C@H]1CCN(c2nccc(Nc3cc4c(C(C)C)ccc(N5C[C@H](c6nnco6)[C@H]5C)c4cn3)n2)C[C@@H]1O` (single isomer, unassigned) [Example 217], the IC50 in assay [1] was less than 10 nM; in assay [2], 15 to 20 nM.
`CO[C@H]1CCN(c2nccc(Nc3cc4c(C(C)C)ccc(N5C[C@H](c6nncn6C)[C@H]5C)c4cn3)n2)C[C@@H]1O` (single isomer, unassigned) [Example 218]: the IC50 was 30 to 50 nM in assay [1] and less than 15 nM in assay [2].
Taken in the same sequence, the figures for `CC(C)c1ccc([C@H]2C[C@H](CS(C)(=O)=O)C2)c2cnc(Nc3ccnc(N4CC[C@@H](O)[C@@](C)(F)C4)n3)cc12` [Example 1, (3S,4R)-3-fluoro-1-(4-((5-isopropyl-8-((1r,3S)-3-((methylsulfonyl)methyl)cyclobutyl)isoquinolin-3-yl)amino)pyrimidin-2-yl)-3-methylpiperidin-4-ol] were less than 10 nM and less than 15 nM.
In the case of `CC(=O)N1CC(Cc2ccc(C(C)C)c3cc(Nc4ccnc(N5CC[C@@H](O)[C@@](C)(F)C5)n4)ncc23)C1` [Example 2, 1-(3-((3-((2-((3S,4R)-3-fluoro-4-hydroxy-3-methylpiperidin-1-yl)pyrimidin-4-yl)amino)-5-isopropylisoquinolin-8-yl)methyl)azetidin-1-yl)ethan-1-one], the values for the IC50 in assay [1] and in assay [2] were more than 50 nM and less than 15 nM, respectively.
On the same counts, the results for `CC(C)c1ccc(C2CN(S(C)(=O)=O)C2)c2cnc(Nc3ccnc(N4CC[C@@H](O)[C@@](C)(F)C4)n3)cc12` [Example 3, (3S,4R)-3-fluoro-1-(4-((5-isopropyl-8-(1-(methylsulfonyl)azetidin-3-yl)isoquinolin-3-yl)amino)pyrimidin-2-yl)-3-methylpiperidin-4-ol] are 20 to 30 nM and less than 15 nM.
Taken in the same sequence, the figures for `CC(=O)N1CC(c2ccc(C(C)C)c3cc(Nc4ccnc(N5CC[C@@H](O)[C@@](C)(F)C5)n4)ncc23)C1` [Example 4, 1-(3-(3-((2-((3S,4R)-3-fluoro-4-hydroxy-3-methylpiperidin-1-yl)pyrimidin-4-yl)amino)-5-isopropylisoquinolin-8-yl)azetidin-1-yl)ethan-1-one] were 20 to 30 nM and less than 15 nM.
On the same counts, the results for `Cc1nnc(-c2ncc(C(C)C)c3cc(Nc4ccnc(N5CC[C@@H](O)[C@@](C)(F)C5)n4)ncc23)o1` [Example 5, (3S,4R)-3-fluoro-1-(4-((5-isopropyl-8-(5-methyl-1,3,4-oxadiazol-2-yl)-2,7-naphthyridin-3-yl)amino)pyrimidin-2-yl)-3-methylpiperidin-4-ol] are 10 to 20 nM and less than 15 nM.
`CC(C)c1ncc(-c2ncn(C)n2)c2cnc(Nc3ccnc(N4CC[C@@H](O)[C@@](C)(F)C4)n3)cc12` [Example 6, (3S,4R)-3-fluoro-1-(4-((5-isopropyl-8-(1-methyl-1H-1,2,4-triazol-3-yl)-2,6-naphthyridin-3-yl)amino)pyrimidin-2-yl)-3-methylpiperidin-4-ol]: the IC50 in assay [1] was more than 50 nM; in assay [2], less than 15 nM.
Consider `Cc1nnc(-c2cnc(C(C)C)c3cc(Nc4ccnc(N5CC[C@@H](O)[C@@](C)(F)C5)n4)ncc23)o1` [Example 7, (3S,4R)-3-fluoro-1-(4-((5-isopropyl-8-(5-methyl-1,3,4-oxadiazol-2-yl)-2,6-naphthyridin-3-yl)amino)pyrimidin-2-yl)-3-methylpiperidin-4-ol], for which the half-inhibitory concentration (IC50) in assay [1] was more than 50 nM; in assay [2], 15 to 20 nM.
Taken in the same sequence, the figures for `Cc1nc(-c2cnc(C(C)C)c3cc(Nc4ccnc(N5CC[C@@H](O)[C@@](C)(F)C5)n4)ncc23)no1` [Example 8, (3S,4R)-3-fluoro-1-(4-((5-isopropyl-8-(5-methyl-1,2,4-oxadiazol-3-yl)-2,6-naphthyridin-3-yl)amino)pyrimidin-2-yl)-3-methylpiperidin-4-ol] were more than 50 nM and 20 to 30 nM.
On the same counts, the results for `CC(C)c1cnc(-c2cnn(C)c2)c2cnc(Nc3ccnc(N4CC[C@@H](O)[C@@](C)(F)C4)n3)cc12` [Example 9, (3S,4R)-3-fluoro-1-(4-((5-isopropyl-8-(1-methyl-1H-pyrazol-4-yl)-2,7-naphthyridin-3-yl)amino)pyrimidin-2-yl)-3-methylpiperidin-4-ol] are 30 to 50 nM and less than 15 nM.
Consider `CC(C)c1cnc(-c2cn(C)nn2)c2cnc(Nc3ccnc(N4CC[C@@H](O)[C@@](C)(F)C4)n3)cc12` [Example 10, (3S,4R)-3-fluoro-1-(4-((5-isopropyl-8-(1-methyl-1H-1,2,3-triazol-4-yl)-2,7-naphthyridin-3-yl)amino)pyrimidin-2-yl)-3-methylpiperidin-4-ol], for which the IC50 is 10 to 20 nM in assay [1] and less than 15 nM in assay [2].
`CC(C)c1ncc(-c2ccn(C)n2)c2cnc(Nc3ccnc(N4CC[C@@H](O)[C@@](C)(F)C4)n3)cc12` [Example 11, (3S,4R)-3-fluoro-1-(4-((5-isopropyl-8-(1-methyl-1H-pyrazol-3-yl)-2,6-naphthyridin-3-yl)amino)pyrimidin-2-yl)-3-methylpiperidin-4-ol]: the IC50 in assay [1] lay in the range of 30 to 50 nM; in assay [2], 20 to 30 nM.
On the same counts, the results for `CC(C)c1ncc(-c2cn(C)nn2)c2cnc(Nc3ccnc(N4CC[C@@H](O)[C@@](C)(F)C4)n3)cc12` [Example 12, (3S,4R)-3-fluoro-1-(4-((5-isopropyl-8-(1-methyl-1H-1,2,3-triazol-4-yl)-2,6-naphthyridin-3-yl)amino)pyrimidin-2-yl)-3-methylpiperidin-4-ol] are 10 to 20 nM and less than 15 nM.
In the case of `CC(C)c1cnc(-c2cnn(C)c2CN(C)C)c2cnc(Nc3ccnc(N4CC[C@@H](O)[C@@](C)(F)C4)n3)cc12` [Example 13, (3S,4R)-1-(4-((8-(5-((dimethylamino)methyl)-1-methyl-1H-pyrazol-4-yl)-5-isopropyl-2,7-naphthyridin-3-yl)amino)pyrimidin-2-yl)-3-fluoro-3-methylpiperidin-4-ol trifluoroacetate], the concentration for half-maximal inhibition (IC50) was more than 50 nM in assay [1] and 30 to 100 nM in assay [2].
On the same counts, the results for `CC(C)c1ncc(-c2cnn(C)c2)c2cnc(Nc3ccnc(N4CC[C@@H](O)[C@@](C)(F)C4)n3)cc12` [Example 14, (3S,4R)-3-fluoro-1-(4-((5-isopropyl-8-(1-methyl-1H-pyrazol-4-yl)-2,6-naphthyridin-3-yl)amino)pyrimidin-2-yl)-3-methylpiperidin-4-ol] are more than 50 nM and less than 15 nM.
